One assay has as its target HaCaT (EGFR WT) (Homo sapiens, UniProt P00533). As to the kind of experiment: EGFR target modulation in HaCaT (EGFR-WT) cell line (phospho-EGFR Y1173 ELISA). It counts as cell-based. As to conditions: value in parentheses. On the procedure:
EGFR Target Modulation in HaCaT (EGFR-WT) Cell Line Tissue Culture. […] The serial diluted compounds were transferred to the plate containing cells by using a 50 nl Pin Head device (Perkin Elmer) and the cells were placed back in the incubator for 3 hours. […] Phospho-EGFR ([…]) ELISA. Solid white high-binding ELISA plates (Greiner #781074) were coated with 5 ug/ml anti-EGFR capture antibody (R&D Systems #AF231) overnight in 50 mM carbonate/bicarbonate pH 9.5 buffer. […] Wash steps were carried out with a Bio-Tek ELx405 SelectTM using 4 cycles of 100 ul TBS-T (20 mM Tris, 137 mM NaCl, 0.05% Tween-20) per well. […] Lysis was allowed to occur for 20 minutes on ice. A 25 ul aliquot was added to each well of the blocked ELISA plate and incubated overnight at 4° C. with gentle shaking. […] After washing, 1:2,000 anti-rabbit-HRP (Cell Signaling #7074) in 0.2% BSA/TBS-T was added and incubated for 1 hour at room temperature. Chemiluminescent detection was carried out with SuperSignal ELISA Pico substrate (ThermoScientific #37069). Signal was read on EnVision plate reader using built-in UltraLUM setting. Data Analysis. Control cells treated with EGF were set to 100% maximum response. […] With these parameters, the IC50's for each compound in each cell line was calculated using non-linear curve fitting analysis.

For a further assay, the target named is H3255 (EGFR L858R) (Homo sapiens, UniProt P00533, L858R). As to the kind of experiment: EGFR target modulation in H3255 cell line (phospho-EGFR Y1173 ELISA). The class given is cell-based. The method in brief: (§1)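 Readout: luminescent pY1173-EGFR sandwich ELISA on cell lysates. Treatment: compound, 3 h, 37 °C.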
A general note: An ELISA detects its analyte on a solid surface through an enzyme-linked reagent.

In another assay the target is T1, EGFR(L858R/T790M) (Homo sapiens, UniProt P00533, L858R/T790M).
T1 construct: purchased from Carna (GST-a.a. 669-1210)
Put plainly: EGFR biochemical assay (HTRF), IC50 determinations. The method in brief: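 Two formats were run: compound preincubated at room temperature with enzyme and biotin-TK peptide before ATP starts the reaction, or no preincubation with enzyme added last. Reactions ran 60 min at room temperature and were stopped with EDTA. Phosphopeptide was read by HTRF (PT66K/SAXL, 1 h).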
On the technique in general: TR-FRET usually uses a lanthanide donor and a delayed reading to cut background.

The next assay has as its target H1975 (EGFR L858/T790M) (Homo sapiens, UniProt P00533, L858R/T790M). Put plainly: EGFR target modulation in H1975 cell line (phospho-EGFR Y1173 ELISA). It counts as cell-based. A digest of the protocol: as §1
In a further assay the target is HCC827 (Del E746-A750) (Homo sapiens, UniProt P00533, DEL746-750). Put plainly: EGFR target modulation in HCC827 cell line (phospho-EGFR Y1173 ELISA). It counts as cell-based. The method in brief: as §1
A further assay addresses HEKn (EGFR WT) (Homo sapiens, UniProt P00533). As to the kind of experiment: EGFR target modulation in HEKn (EGFR-WT) cell line (phospho-EGFR Y1173 ELISA). The class given is cell-based. As to conditions: value outside parentheses. The method in brief:
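Read-out was Y1173 phosphorylation, measured by chemiluminescent ELISA with anti-EGFR capture of lysates. HEKn keratinocytes (wild-type EGFR) were treated with compound for 3 h.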

The mark [1] stands for this setting: EGFR (L858R/T790M) with 90 min pre-incubation, read-out: IC50 (μM) Column B.
The mark [2] stands for this setting: EGFR (L858R/T790M) with no pre-incubation, read-out: IC50 (μM) Column A.

Like-named read-outs stand apart in the source and are kept apart here.

T1 sequence (P00533 669-1210 T790M/L858R): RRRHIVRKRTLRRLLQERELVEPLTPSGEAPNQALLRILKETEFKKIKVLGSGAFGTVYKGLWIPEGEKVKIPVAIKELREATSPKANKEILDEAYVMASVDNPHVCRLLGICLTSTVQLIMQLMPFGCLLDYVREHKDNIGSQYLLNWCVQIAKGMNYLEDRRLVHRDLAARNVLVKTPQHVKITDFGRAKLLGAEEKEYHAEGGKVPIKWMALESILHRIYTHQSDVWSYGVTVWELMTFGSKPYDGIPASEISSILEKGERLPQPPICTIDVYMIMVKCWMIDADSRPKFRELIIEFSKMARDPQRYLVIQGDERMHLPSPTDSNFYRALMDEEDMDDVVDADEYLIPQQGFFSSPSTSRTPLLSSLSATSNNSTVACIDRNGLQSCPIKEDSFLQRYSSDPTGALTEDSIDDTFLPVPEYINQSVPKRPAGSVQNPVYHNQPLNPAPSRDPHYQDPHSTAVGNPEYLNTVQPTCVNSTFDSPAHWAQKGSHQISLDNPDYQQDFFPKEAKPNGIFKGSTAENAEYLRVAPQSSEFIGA
Sequence of H3255 (EGFR L858R) (P00533 25-1210 L858R): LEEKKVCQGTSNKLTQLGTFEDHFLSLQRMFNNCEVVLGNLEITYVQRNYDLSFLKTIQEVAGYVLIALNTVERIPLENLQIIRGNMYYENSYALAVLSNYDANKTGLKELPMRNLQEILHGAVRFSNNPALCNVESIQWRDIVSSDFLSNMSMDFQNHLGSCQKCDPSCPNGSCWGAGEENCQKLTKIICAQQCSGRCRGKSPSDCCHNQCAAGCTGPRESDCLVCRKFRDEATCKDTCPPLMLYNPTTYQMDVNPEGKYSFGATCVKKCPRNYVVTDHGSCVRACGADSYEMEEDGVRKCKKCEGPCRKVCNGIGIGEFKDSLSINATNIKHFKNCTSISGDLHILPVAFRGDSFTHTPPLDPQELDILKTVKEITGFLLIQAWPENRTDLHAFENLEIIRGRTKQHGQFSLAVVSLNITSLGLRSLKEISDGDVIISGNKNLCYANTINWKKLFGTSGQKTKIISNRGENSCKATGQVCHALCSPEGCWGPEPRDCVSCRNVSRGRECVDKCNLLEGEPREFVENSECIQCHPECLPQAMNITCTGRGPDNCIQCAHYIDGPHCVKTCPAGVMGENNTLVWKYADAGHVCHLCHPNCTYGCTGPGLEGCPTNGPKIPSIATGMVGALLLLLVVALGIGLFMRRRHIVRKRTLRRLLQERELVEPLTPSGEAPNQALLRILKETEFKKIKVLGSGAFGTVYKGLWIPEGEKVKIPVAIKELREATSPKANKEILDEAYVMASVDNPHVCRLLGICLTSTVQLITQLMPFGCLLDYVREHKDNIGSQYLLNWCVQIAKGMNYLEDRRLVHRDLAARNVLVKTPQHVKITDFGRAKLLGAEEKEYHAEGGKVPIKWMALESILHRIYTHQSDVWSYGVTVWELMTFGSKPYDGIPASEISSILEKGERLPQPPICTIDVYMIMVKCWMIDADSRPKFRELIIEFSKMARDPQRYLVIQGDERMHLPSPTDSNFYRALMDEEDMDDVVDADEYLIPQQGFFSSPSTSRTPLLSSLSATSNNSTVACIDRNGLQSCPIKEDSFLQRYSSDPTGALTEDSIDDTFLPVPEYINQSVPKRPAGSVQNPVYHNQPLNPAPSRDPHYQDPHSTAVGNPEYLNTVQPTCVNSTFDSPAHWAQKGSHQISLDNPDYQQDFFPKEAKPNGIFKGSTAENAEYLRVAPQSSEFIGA
Sequence of HCC827 (Del E746-A750) (P00533 with tags, fused parts or gaps DEL746-750): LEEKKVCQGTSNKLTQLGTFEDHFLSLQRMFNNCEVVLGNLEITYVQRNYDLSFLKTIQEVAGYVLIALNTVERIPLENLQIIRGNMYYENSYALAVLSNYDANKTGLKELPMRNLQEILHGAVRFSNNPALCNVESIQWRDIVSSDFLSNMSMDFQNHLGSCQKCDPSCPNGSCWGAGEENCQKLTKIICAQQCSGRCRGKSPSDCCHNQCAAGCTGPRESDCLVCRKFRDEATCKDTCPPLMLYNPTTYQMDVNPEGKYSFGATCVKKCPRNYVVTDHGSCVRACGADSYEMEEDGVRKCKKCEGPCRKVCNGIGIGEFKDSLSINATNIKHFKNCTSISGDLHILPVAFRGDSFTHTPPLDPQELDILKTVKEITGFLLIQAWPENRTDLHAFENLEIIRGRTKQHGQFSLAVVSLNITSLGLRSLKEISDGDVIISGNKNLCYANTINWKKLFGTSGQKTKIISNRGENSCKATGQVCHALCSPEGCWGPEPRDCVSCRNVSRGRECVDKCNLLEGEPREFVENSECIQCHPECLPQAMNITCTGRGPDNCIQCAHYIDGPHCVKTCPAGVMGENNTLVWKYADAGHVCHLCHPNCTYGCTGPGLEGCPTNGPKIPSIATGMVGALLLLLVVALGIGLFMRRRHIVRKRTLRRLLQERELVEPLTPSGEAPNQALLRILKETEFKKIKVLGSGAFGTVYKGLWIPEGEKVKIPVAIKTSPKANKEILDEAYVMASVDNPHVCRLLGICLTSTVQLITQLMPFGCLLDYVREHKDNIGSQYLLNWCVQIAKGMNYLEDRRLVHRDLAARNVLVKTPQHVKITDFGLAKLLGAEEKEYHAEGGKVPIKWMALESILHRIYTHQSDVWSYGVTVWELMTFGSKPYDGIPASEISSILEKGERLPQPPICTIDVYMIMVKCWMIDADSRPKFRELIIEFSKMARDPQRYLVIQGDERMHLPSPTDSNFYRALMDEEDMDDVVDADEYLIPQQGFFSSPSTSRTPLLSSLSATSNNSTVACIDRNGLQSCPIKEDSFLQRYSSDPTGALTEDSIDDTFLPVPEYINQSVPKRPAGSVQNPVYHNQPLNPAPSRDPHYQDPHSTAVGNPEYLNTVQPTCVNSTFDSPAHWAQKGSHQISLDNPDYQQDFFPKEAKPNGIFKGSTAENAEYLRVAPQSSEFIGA
Sequence of HaCaT (EGFR WT) (P00533 25-1210): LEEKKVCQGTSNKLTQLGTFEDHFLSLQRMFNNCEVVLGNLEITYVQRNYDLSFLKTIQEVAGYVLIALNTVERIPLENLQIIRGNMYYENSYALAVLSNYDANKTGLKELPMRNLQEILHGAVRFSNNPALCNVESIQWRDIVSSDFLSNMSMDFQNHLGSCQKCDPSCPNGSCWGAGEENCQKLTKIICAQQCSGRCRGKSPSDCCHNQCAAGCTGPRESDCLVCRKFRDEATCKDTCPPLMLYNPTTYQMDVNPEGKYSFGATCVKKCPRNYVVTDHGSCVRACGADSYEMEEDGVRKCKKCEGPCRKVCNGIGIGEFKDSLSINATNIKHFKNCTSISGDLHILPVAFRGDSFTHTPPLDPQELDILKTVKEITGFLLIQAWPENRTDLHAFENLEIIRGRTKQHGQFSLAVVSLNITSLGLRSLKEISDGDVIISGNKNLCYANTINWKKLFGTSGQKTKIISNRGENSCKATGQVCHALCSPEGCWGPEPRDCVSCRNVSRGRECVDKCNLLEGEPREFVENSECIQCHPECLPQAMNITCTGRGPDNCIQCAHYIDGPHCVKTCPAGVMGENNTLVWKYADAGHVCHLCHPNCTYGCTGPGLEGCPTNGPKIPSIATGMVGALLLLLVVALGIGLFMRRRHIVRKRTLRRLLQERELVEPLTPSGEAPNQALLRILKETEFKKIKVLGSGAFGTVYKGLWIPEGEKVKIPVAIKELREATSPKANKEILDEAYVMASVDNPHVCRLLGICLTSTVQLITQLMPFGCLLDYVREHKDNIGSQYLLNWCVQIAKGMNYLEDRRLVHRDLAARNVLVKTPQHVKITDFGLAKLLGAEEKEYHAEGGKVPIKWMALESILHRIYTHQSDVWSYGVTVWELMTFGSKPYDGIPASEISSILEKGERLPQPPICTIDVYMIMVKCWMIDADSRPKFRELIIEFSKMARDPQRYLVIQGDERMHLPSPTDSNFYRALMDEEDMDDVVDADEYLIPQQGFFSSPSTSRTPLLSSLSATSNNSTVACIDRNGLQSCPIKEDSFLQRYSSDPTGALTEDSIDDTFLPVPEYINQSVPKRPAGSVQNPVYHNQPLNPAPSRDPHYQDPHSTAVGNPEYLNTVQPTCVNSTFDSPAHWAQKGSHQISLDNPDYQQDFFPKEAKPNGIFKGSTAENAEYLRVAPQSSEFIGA

Broadly, the IC50 is the midpoint of a concentration-inhibition curve. On to `Cc1cc(C(=O)Nc2nc3cccc(Cl)c3n2[C@@H]2CCCCN(C(=O)/C=C/C(C)(C)N(C)C)C2)ccn1` [Example 3-18], for which the IC50 on HaCaT (EGFR WT) is above 10000 nM; against H3255 (EGFR L858R), 719 nM; on EGFR(L858R/T790M) (setting [1]), 0.108 µM; at EGFR(L858R/T790M) (setting [2]) it was 0.135 µM; against H1975 (EGFR L858/T790M) it was 1050 nM; at HCC827 (Del E746-A750), 480 nM.

Regarding `C/C=C/C(=O)N1CCCC[C@@H](n2c(NC(=O)c3cc(C)nc(C)c3)nc3ccc(OCCN4CCCC4)c(Cl)c32)C1` [Example 17-195], the IC50 at HaCaT (EGFR WT) worked out at 7120 nM; against H3255 (EGFR L858R), 181 nM; on EGFR(L858R/T790M) (setting [1]), 0.007 µM; at EGFR(L858R/T790M) (setting [2]), 0.116 µM; against H1975 (EGFR L858/T790M), 36 nM; against HCC827 (Del E746-A750), 45 nM.

As for `C=CC(=O)N1CCCC[C@@H](n2c(NC(=O)c3ccnc(C)c3)nc3ccc(OCCN4CCCC4)c(Cl)c32)C1` [Example 17-193], the IC50 at HaCaT (EGFR WT) is 44 nM; against H3255 (EGFR L858R), 2 nM; at EGFR(L858R/T790M) (setting [1]), below 0.001 µM; on EGFR(L858R/T790M) (setting [2]), 0.002 µM; at H1975 (EGFR L858/T790M) it was 1 nM; against HCC827 (Del E746-A750), 1 nM.

In the case of `C/C=C/C(=O)N1CCCC[C@@H](n2c(NC(=O)c3ccnc(C)c3)nc3ccc(OCCN4CCCC4)c(Cl)c32)C1` [Example 17-194], the IC50 on HaCaT (EGFR WT) turned out to be 576 nM; at H3255 (EGFR L858R) it was 67 nM; on EGFR(L858R/T790M) (setting [1]), 0.006 µM; on EGFR(L858R/T790M) (setting [2]), 0.068 µM; against H1975 (EGFR L858/T790M), 41 nM; against HCC827 (Del E746-A750), 16 nM.

`CNC/C=C/C(=O)N1CCCC[C@@H](n2c(NC(=O)c3cc(C)nc(C)c3)nc3cccc(Cl)c32)C1` [Example 17-186]: the IC50 at HaCaT (EGFR WT) was 213 nM; against H3255 (EGFR L858R) it was 10 nM; at EGFR(L858R/T790M) (setting [1]), below 0.001 µM; at EGFR(L858R/T790M) (setting [2]), 0.004 µM; on HEKn (EGFR WT) it was 291 nM; against H1975 (EGFR L858/T790M), 2 nM. Further, on HCC827 (Del E746-A750), 2 nM corresponded to half-maximal inhibition (IC50).

Turning to `CNC/C=C/C(=O)N1CCCC[C@@H](n2c(NC(=O)c3ccnc(C)c3)nc3cccc(Cl)c32)C1` [Example 17-185], the IC50 at HaCaT (EGFR WT) was 44 nM; against H3255 (EGFR L858R) it was 2 nM; on EGFR(L858R/T790M) (setting [1]) it was below 0.001 µM; at EGFR(L858R/T790M) (setting [2]), 0.002 µM; at HEKn (EGFR WT), 44 nM; against H1975 (EGFR L858/T790M), 1 nM. Further, half-maximal inhibition on HCC827 (Del E746-A750) (IC50) was put at 1 nM.

With `Cc1cc(C(=O)Nc2nc3cccc(C(F)(F)F)c3n2[C@@H]2CCCCN(C(=O)/C=C/CN(C)C)C2)ccn1` [Example 17-187], the IC50 on HaCaT (EGFR WT) came out at 475 nM; against H3255 (EGFR L858R), 14 nM; at EGFR(L858R/T790M) (setting [1]), 0.001 µM; at EGFR(L858R/T790M) (setting [2]), 0.022 µM; against H1975 (EGFR L858/T790M), 13 nM; on HCC827 (Del E746-A750), 2 nM.
